The melting point is the temperature, or range, at which the solid turns liquid.

In turn, `CCNC(=O)Nc1nc(-c2cc(C)cc(C)c2)c(-c2ccncc2)s1` [23-201, N-[4 (3,5 dimethylphenyl)-5 (4 pyridyl)-1,3 thiazol-2 yl]-N′-ethylurea] displayed a melting point of 202 to 203 °C.

For `CCCNC(=O)Nc1nc(-c2cc(C)cc(C)c2)c(-c2ccncc2)s1` [23-202, N-[4 (3,5 dimethylphenyl)-5 (4 pyridyl)-1,3 thiazol-2 yl]-N′-propylurea], the melting point lay in the range of 128 to 130 °C.

`Cc1cc(C)cc(-c2nc(NC(=O)c3cnccn3)sc2-c2ccncc2)c1` [23-246, N-[4 (3,5 dimethylphenyl)-5 (4 pyridyl)-1,3 thiazol-2-yl]pyrazinecarboxamide] registered a melting point of 269 to 270 °C.

`Cc1cccc(-c2nc(-c3ccc(F)cc3)sc2-c2ccnc(NC(=O)Cc3ccccc3)c2)c1` [D 14, N-[4-[2-(4-fluorophenyl)-4-(3-methylphenyl)-1,3-thiazol-5-yl]-2-pyridyl]phenylacetamide] displayed a melting point of 187 to 190 °C.

Consider `COc1ccc(-c2nc(C)sc2-c2ccnc(NC(=O)Cc3ccccc3)c2)cc1` [D 15-1, N-[4 [4 (4 methoxyphenyl)-2 methyl-1,3 thiazol-5 yl]-2 pyridyl]phenylacetamide], for which the melting point lay within 118 to 120 °C.

For `CCCCc1nc(-c2cccc(C)c2)c(-c2ccnc(NC(=O)Cc3ccccc3)c2)s1` [D 15-4, N-[4-[2-butyl-4-(3-methylphenyl)-1,3-thiazol-5-yl]-2-pyridyl]phenylacetamide], the melting point fell in the range of 92 to 93 °C.

Compound `CCCc1nc(-c2cccc(C)c2)c(-c2ccnc(NC(=O)CCc3ccccc3)c2)s1` [D 16-8, N-[4-[4-(3-methylphenyl)-2-propyl-1,3-thiazol-5-yl]-2-pyridyl]-3-phenylpropionamide] came in with a melting point of 103 to 104 °C.

As for `Cc1cccc(-c2nc(-c3ccc(F)cc3)sc2-c2ccnc(NC(=O)c3ccccc3)c2)c1` [D 16-11, N-[4-[2-(4-fluorophenyl)-4-(3-methylphenyl)-1,3-thiazol-5-yl]-2-pyridyl]benzamide], the melting point lay in the range of 126 to 128 °C.

As for `Cc1cccc(-c2nc(-c3ccc(F)cc3)sc2-c2ccnc(NC(=O)CCc3ccccc3)c2)c1` [D 16-12, N-[4-[2-(4-fluorophenyl)-4-(3-methylphenyl)-1,3-thiazol-5-yl]-2-pyridyl]-3-phenylpropionamide], the melting point was 169 to 171 °C.

`Cc1cccc(-c2nc(-c3ccccc3Cl)sc2-c2ccnc(NC(=O)c3ccccc3)c2)c1` [D 16-13, N-[4 [2 (2 chlorophenyl)-4 (3 methylphenyl)-1,3 thiazol-5 yl]-2 pyridyl]benzamide] showed a melting point of 138 to 140 °C.

`Cc1cccc(-c2nc(-c3ccccc3Cl)sc2-c2ccnc(NC(=O)CCc3ccccc3)c2)c1` [D 16-14, N-[4 [2 (2 chlorophenyl)-4 (3 methylphenyl)-1,3 thiazol-5 yl]-2 pyridyl]-3-phenylpropionamide] yielded a melting point of 156 to 158 °C.

Turning to `CSc1ccc(-c2nc(-c3cccc(C)c3)c(-c3ccnc(NC(=O)c4ccccc4)c3)s2)cc1` [D 16-15, N-[4-[4-(3-methylphenyl)-2-(4-methylthiophenyl)-1,3-thiazol-5-yl]-2-pyridyl]benzamide], the melting point lay within 180 to 182 °C.

As to `CSc1ccc(-c2nc(-c3cccc(C)c3)c(-c3ccnc(NC(=O)CCc4ccccc4)c3)s2)cc1` [D 16-16, N-[4-[4-(3-methylphenyl)-2-(4-methylthiophenyl)-1,3-thiazol-5-yl]-2-pyridyl]-3-phenylpropionamide], the melting point was in the range of 174 to 175 °C.

Take `CSc1ccc(-c2nc(-c3cccc(C)c3)c(-c3ccnc(NC(=O)c4cccs4)c3)s2)cc1` [D 16-17, N-[4 [4 (3 methylphenyl)-2 (4 methylthiophenyl)-1,3 thiazol-5 yl]-2 pyridyl]-2-thiophenecarboxamide]: the melting point lay in the range of 145 to 147 °C.

`CSc1ccc(-c2nc(-c3cccc(C)c3)c(-c3ccnc(NC(=O)c4ccc5ccccc5c4)c3)s2)cc1` [D 16-18, N-[4 [4 (3 methylphenyl)-2 (4 methylthiophenyl)-1,3 thiazol-5 yl]-2 pyridyl]-2-naphthamide]: the melting point was 184 to 186 °C.

On to `COc1ccc(-c2nc(C)sc2-c2ccnc(NCc3ccccc3)c2)cc1` [D 19-1, N-benzyl-N-[4 [4 (4 methoxyphenyl)-2 methyl-1,3 thiazol-5 yl]-2 pyridyl]amine], for which the melting point lay within 132 to 133 °C.

`Cc1cccc(-c2nc(-c3ccc(F)cc3)sc2-c2ccnc(NCc3ccccc3)c2)c1` [D 19-11, N-benzyl-N-[4 [2 (4-fluorophenyl)-4 (3 methylphenyl)-1,3 thiazol-5 yl]-2-pyridyl]amine] yielded a melting point of 143 to 146 °C.

In turn, `Cc1cccc(-c2nc(-c3ccc(F)cc3)sc2-c2ccnc(NCCc3ccccc3)c2)c1` [D 19-12, N-[4 [2 (4 fluorophenyl)-4 (3 methylphenyl)-1,3 thiazol-5 yl]-2 pyridyl]-N-(2-phenylethyl)amine] returned a melting point of 97 to 98 °C.

For `Cc1cccc(-c2nc(-c3ccccc3Cl)sc2-c2ccnc(NCc3ccccc3)c2)c1` [D 19-14, N-benzyl-N-[4 [2 (2-chlorophenyl)-4 (3 methylphenyl)-1,3 thiazol-5 yl]-2-pyridyl]amine], the melting point fell in the range of 84 to 88 °C.

The compound `Cc1cccc(-c2nc(-c3ccccc3Cl)sc2-c2ccnc(NCCc3ccccc3)c2)c1` [D 19-15, N-[4 [2 (2 chlorophenyl)-4 (3 methylphenyl)-1,3 thiazol-5 yl]-2 pyridyl]-N-(2-phenylethyl)amine] showed a melting point of 113 to 114 °C.

As to `Cc1cccc(-c2nc(-c3ccccc3Cl)sc2-c2ccnc(NCCCc3ccccc3)c2)c1` [D 19-16, N-[4 [2 (2 chlorophenyl)-4 (3 methylphenyl)-1,3 thiazol-5 yl]-2 pyridyl]-N-(3-phenylpropyl)amine], the melting point fell in the range of 101 to 102 °C.

`CSc1ccc(-c2nc(-c3cccc(C)c3)c(-c3ccnc(NCc4ccccc4)c3)s2)cc1` [D 19-17, N-benzyl-N-[4-[4-(3-methylphenyl)-2-(4-methylthiophenyl)-1,3-thiazol-5-yl]-2-pyridyl]amine]: the melting point lay in the range of 134 to 136 °C.

On to `CSc1ccc(-c2nc(-c3cccc(C)c3)c(-c3ccnc(NCCc4ccccc4)c3)s2)cc1` [D 19-18, N-[4-[4-(3-methylphenyl)-2-(4-methylthiophenyl)-1,3-thiazol-5-yl]-2-pyridyl]-N-(2-phenylethyl)amine], for which the melting point lay within 137 to 139 °C.

The compound `CSc1ccc(-c2nc(-c3cccc(C)c3)c(-c3ccnc(NCCCc4ccccc4)c3)s2)cc1` [D 19-19, N-[4-[4-(3-methylphenyl)-2-(4-methylthiophenyl)-1,3-thiazol-5-yl]-2-pyridyl]-N-(3-phenylpropyl)amine] displayed a melting point of 106 to 107 °C.

Take `CSc1ccc(-c2nc(-c3cccc(C)c3)c(-c3ccnc(NCc4ccc5ccccc5c4)c3)s2)cc1` [D 19-20, N-[4 [4 (3 methylphenyl)-2 (4 methylthiophenyl)-1,3 thiazol-5 yl]-2 pyridyl]-N-(2-naphthylmethyl)amine]: the melting point fell in the range of 144 to 145 °C.

For the compound `Cc1cccc(-c2nc(-c3ccc(S(C)(=O)=O)cc3)sc2-c2ccnc(NC(=O)c3cccs3)c2)c1` [D 21-3, N-[4 [4 (3 methylphenyl)-2-(4 methylsulfonylphenyl)-1,3 thiazol-5 yl]-2 pyridyl]-2-thiophenecarboxamide], the melting point was in the range of 199 to 201 °C.

In turn, `Cc1cccc(-c2nc(-c3ccc(S(C)(=O)=O)cc3)sc2-c2ccnc(NC(=O)c3ccc4ccccc4c3)c2)c1` [D 21-4, N-[4 [4 (3 methylphenyl)-2-(4 methylsulfonylphenyl)-1,3 thiazol-5 yl]-2 pyridyl]-2-naphthamide] had a melting point of 231 to 233 °C.

Take `Cc1cccc(-c2nc(-c3ccc(S(C)(=O)=O)cc3)sc2-c2ccnc(NCCCc3ccccc3)c2)c1` [D 21-6, N-[4-[4-(3-methylphenyl)-2-(4-methylsulfonylphenyl)-1,3-thiazol-5-yl]-2-pyridyl]-N-(3-phenylpropyl)amine]: the melting point lay in the range of 167 to 168 °C.

As for `Cc1cccc(-c2nc(-c3ccc(S(C)(=O)=O)cc3)sc2-c2ccnc(NCc3ccc4ccccc4c3)c2)c1` [D 21-7, N-[4 [4 (3 methylphenyl)-2-(4 methylsulfonylphenyl)-1,3 thiazol-5 yl]-2 pyridyl]-N-(2-naphthylmethyl)amine], the melting point was 167 to 168 °C.

`Cc1cccc(-c2nc(-c3ccc(S(C)(=O)=O)cc3)sc2-c2ccnc(N(C)CCc3ccccc3)c2)c1` [D 25-4, N-methyl-N-[4 [4 (3-methylphenyl)-2 (4 methylsulfonylphenyl)-1,3 thiazol-5 yl]-2 pyridyl]-N-(2 phenylethyl)amine] displayed a melting point of 116 to 117 °C.

For `Cc1cccc(-c2nc(-c3ccc(S(C)(=O)=O)cc3)sc2-c2ccnc(NCc3cccs3)c2)c1` [D 25-5, N-[4 [4 (3 methylphenyl)-2-(4 methylsulfonylphenyl)-1,3 thiazol-5 yl]-2 pyridyl]-N-(2-thienylmethyl)amine], the melting point fell in the range of 107 to 109 °C.

The compound `Cc1cccc(-c2nc(-c3ccc(S(C)(=O)=O)cc3)sc2-c2ccnc(SCc3ccccc3)c2)c1` [D 27, 5 (2 benzylthio-4 pyridyl)-4 (3-methylphenyl)-2 (4 methylsulfonylphenyl)-1,3 thiazole] came in with a melting point of 182 to 185 °C.

For `COc1ccc(-c2nc(N)sc2-c2ccnc(N)c2)cc1` [H 1, [5 (2 amino-4 pyridyl)-4 (4 methoxyphenyl)-1,3 thiazol-2-yl]amine], the melting point was in the range of 251 to 254 °C.

Compound `Nc1nc(-c2ccc(F)cc2)c(-c2ccnc(F)c2)s1` [H 7-3, [4 (4 fluorophenyl)-5 (2-fluoro-4 pyridyl)-1,3 thiazol-2 yl]amine] registered a melting point of 243 to 245 °C.

Consider `Cc1cccc(-c2nc(N)sc2-c2ccnc(C)c2)c1` [H 7-4, [4-(3-methylphenyl)-5-(2-methyl-4-pyridyl)-1,3-thiazol-2-yl]amine], for which the melting point was in the range of 205 to 206 °C.

With `Cc1cc(C)cc(-c2nc(N)sc2-c2ccnc(C)c2)c1` [H 7-5, [4 (3,5 dimethylphenyl)-5-(2 methyl-4 pyridyl)-1,3 thiazol-2 yl]amine], the melting point was in the range of 219 to 220 °C.

Source of the values: patent US20050080113A1, “Medicinal compositions” (priority 2001, published 2005).
